Target: Carbonic anhydrase 9 (Homo sapiens, UniProt Q16790)

How did the Ki turn out when NS(=O)(=O)Nc1ccc(S(N)(=O)=O)cc1 was run?
Its Ki is 64 nM.

With NS(=O)(=O)NCc1ccc(S(N)(=O)=O)cc1 as the molecule, how does the Ki read?
The Ki was 65 nM.

How did the Ki turn out when NS(=O)(=O)NCCc1ccc(S(N)(=O)=O)cc1 was run?
Its Ki is 611 nM.

NS(=O)(=O)Nc1ccc(S(=O)(=O)Nc2ccc(S(N)(=O)=O)cc2)cc1 was tested. Which Ki did it give?
The Ki was 27 nM.

Which Ki does the source give for NS(=O)(=O)Nc1ccc(S(=O)(=O)NCc2ccc(S(N)(=O)=O)cc2)cc1 here?
Its Ki is 35 nM.

NS(=O)(=O)Nc1ccc(S(=O)(=O)NCCc2ccc(S(N)(=O)=O)cc2)cc1 was tested. Which Ki did it give?
The Ki was 65 nM.

Which Ki does the source give for NS(=O)(=O)Nc1ccc(S(=O)(=O)Nc2ccc(C(=O)O)cc2)cc1 here?
The Ki was 57 nM.

For NS(=O)(=O)Nc1ccc(S(=O)(=O)Nc2ccc(C(=O)NCCc3ccc(S(N)(=O)=O)cc3)cc2)cc1, which Ki is on record?
Its Ki is 0.4 nM.

Which Ki does the source give for CC(=O)Nc1ccc(S(=O)(=O)Nc2ccc(C(=O)NCCc3ccc(S(N)(=O)=O)cc3)cc2)cc1 here?
Its Ki is 4.5 nM.

— ChEMBL document CHEMBL2163195, “Development of potent carbonic anhydrase inhibitors incorporating both sulfonamide and sulfamide groups” (J Med Chem, 2012)
